Laboratory results: publication PMC5830749, “Bifunctional fluorescent probes for detection of amyloid aggregates and reactive oxygen species” (Royal Society Open Science, 2018)
Where a name gives a salt, the structure may show the parent alone. Read-outs that look alike come from different tables or passages of the source.

Tests used:
[1] = cited from earlier work
[2] = LCMS analysis of the reaction of the dyes with H2O2 in PBS; type: physicochemical; settings: for dye molecules converted into the phenol: 1 hour incubation with 100 µM H2O2, PBS
Procedure: Next, the change in bulk fluorescence emission was assessed upon addition of H2O2 at a concentration realistic for cellular oxidative stress (100 µM). […] Furthermore, the kinetics could be followed, with all fluorescence traces increasing at varying rates in a linear regime over a 5 h period (figure 2c). As the oxidation reaction is predominantly irreversible, these sensors record the total ROS exposure to a system, rather than the equilibrium value. […] These measurements confirmed that the change in fluorescence intensity arose from the conversion of the boronic ester into the hydroxyl functionality. By contrast, no significant change in the chemical composition of the dye solutions occurred over the same time frame without addition of H2O2 (electronic supplementary material, figure S4).
LCMS analysis of the reaction of the dyes with H2O2 was performed using a Waters Acquity H-class UPLC coupled with a single quadrupole Waters SQD2. ACQUITY UPLC CSH C18 Column, 130 Å, 1.7 µm, 2.1 mm × 50 mm was used as the UPLC column. The conditions of the UPLC method are as follows:
Solvent A: Water +0.1% Formic acid; Solvent B: Acetonitrile +0.1% Formic acid; Gradient of 0-4 minutes 5% - 100%B + 1 minute 100% B with re-equilibration time of 2 minutes. Flow rate: 0.6 ml/min; Column temperature of 40 °C; Injection volume of […]. The signal was monitored at 254 nm.
Samples were prepared by diluting the stock solutions of the BE and mBE compounds (prepared as previously described) into PBS (pH 7.4) to a concentration of 30 µM. The diluted dye solutions were analysed via LCMS directly after dilution (t = 0 hour) as well as 1 hour after dilution (t = 1 hour) (Supplementary Table 1). To proof the oxidative cleavage of the boronic esters to a phenol triggered by H2O2, the diluted dye solutions were exposed to 100 µM H2O2 and analysed via LCMS after 1 hour of incubation (Supplementary Table 1).

H2O2 and αSyn aggregates = H2O2 and αSyn aggregates (Homo sapiens, UniProt P37840); settings: 100 µM H2O2 (60 min) and approx. 10 µM αSyn aggregates, dye 5 µM
[3] = Bulk fluorescence response of dyes to H2O2; settings: for increase in bulk fluorescence upon addition of H2O2: 100 µM H2O2, dye 5 µM, PBS pH 7.4, relative to free dye; for gradient of fluorescence intensity versus time curve: dyes incubated with H2O2, recorded over 5 h at 20 min intervals
Procedure: Next, the change in bulk fluorescence emission was assessed upon addition of H2O2 at a concentration realistic for cellular oxidative stress (100 µM) [31]. […] As the oxidation reaction is predominantly irreversible, these sensors record the total ROS exposure to a system, rather than the equilibrium value.

αSyn aggregates [4] = target: T1, αSyn aggregates (Homo sapiens, UniProt P37840); experiment: Bulk fluorescence response of dyes to preformed αSyn aggregates; set-up: made in house; host or cells: Escherichia coli; settings: approx. 10 µM preformed αSyn aggregates, dye 5 µM, PBS pH 7.4
αSyn aggregates [5] = target: T1, αSyn aggregates; experiment: Surface plasmon resonance equilibrium affinity to immobilized αSyn aggregates; type: binding; set-up: made in house; host or cells: Escherichia coli; settings: SPR, 25°C, before incubation with H2O2
αSyn aggregates [6] = target: T1, αSyn aggregates; experiment: SAVE (TIRF) single-aggregate fluorescence imaging, density of detected aggregates; set-up: made in house; host or cells: Escherichia coli
Procedure: Fluorescence imaging experiments were carried out with a bespoke inverted microscope (Nikon, Eclipse, TE2000-U) set-up optimized for TIRF measurements. […] Images were recorded at 100 ms exposure for 200 frames using automation through Micro-manager software.
Images were analysed with a bespoke ImageJ [41] macro. […] Pixels of intensity above background were determined with a fixed threshold and αSyn aggregate species in each field of view identified and counted. […] Five fields of view in the presence of H2O2 and five in the absence of H2O2 were analysed for each dye. Error bars represent the standard deviations of the species density between the five fields of view.

[7] = Bulk photophysical properties of free dyes in PBS; settings: free dye; for Stokes shift (λem − λabs) / brightness (ε × ΦFl) / maximum absorption wavelength (λabs) / maximum emission wavelength (λem) / molar extinction coefficient ε: PBS pH 7.4; for fluorescence quantum yield ΦFl: PBS pH 7.4, relative to a standard
Procedure: Several photophysical quantities were determined from ensemble absorption and emission data, using techniques previously described [38]. These included absorption maxima (λAbs), emission maxima (λEm) Stokes shift, molar extinction coefficient (ε) and fluorescence quantum yield (ΦFl).

αSyn aggregates [8] = target: T1, αSyn aggregates; experiment: Limit of detection of oxidized probes by SAVE imaging; settings: first dye concentration deviating from mean background by 3 s.d.
Procedure: To quantify this process, we determined the number of detectable aggregates, before and after addition of H2O2 and assumed constant surface coverage. […] The limit of detection (LOD) of oxidized BE (BE-Ox) and mBE (mBE-Ox) probes to αSyn aggregates was determined using SAVE imaging (electronic supplementary material, figure S8).
Glass cover-slides for SAVE fluorescence imaging were cleaned for 1 h using an argon plasma (PDC-002, Harrick Plasma) and the slide surface incubated with poly-L-lysine (PLK) for 30 min as previously described [13]. […] The working solution (50 µl) was added to the clean, PLK coated cover-slide and incubated for 2 min. The slide was then washed twice with PBS and imaged. H2O2 (100 µM) was then added directly to the cover-slide and the sample imaged again.

[9] = 30 µM in PBS pH 7.4, 60 minutes with 100 μM H2O2, UV 254 nm
[10] = 30 µM in PBS pH 7.4, time point 0 minutes, no H2O2, UV 254 nm
[11] = 30 µM in PBS pH 7.4, time point 60 minutes, no H2O2, UV 254 nm
[12] = after addition of 100 µM H2O2 (post-oxidation)
[13] = before addition of H2O2 (pre-oxidized)

Compound	Hydrolyzed (boronic acid derivative) Rel. Area [2, 9]	Oxidized (phenol derivative) Rel. Area [2, 9]	Hydrolyzed (boronic acid derivative) Rel. Area [2, 10]	Hydrolyzed (boronic acid derivative) Rel. Area [2, 11]	dye molecules converted into the phenol [2]	'compounded' increase in fluorescence with H2O2 and αSyn aggregates together (H2O2 and αSyn aggregates)	increase in bulk fluorescence upon addition of H2O2 [3]	gradient of fluorescence intensity versus time curve [3]	density of single αSyn aggregate species detected (αSyn aggregates [6]; [12])	density of single αSyn aggregate species detected (αSyn aggregates [6]; [13])	Stokes shift (λem − λabs) [7]	brightness (ε × ΦFl) [7]	maximum absorption wavelength (λabs) [7]	maximum emission wavelength (λem) [7]	molar extinction coefficient ε [7]	fluorescence quantum yield ΦFl [7]	further results
C=C[C@H]1C[N@@]2CC[C@H]1C[C@H]2[C@H](O)c1ccnc2ccc(OC)cc12 [quinine sulfate]	–	–	–	–	–	–	–	–	–	–	–	–	–	–	–	–	ΦFl of reference standard ([1]; in 0.1 M H2SO4): 0.5
O=C(O)c1ccccc1C1=c2cc3c4c(c2Oc2c1cc1c5c2CCCN5CCC1)CCC[N+]=4CCC3.[Cl-] [rhodamine 101]	–	–	–	–	–	–	–	–	–	–	–	–	–	–	–	–	ΦFl of reference standard ([1]; in ethanol): 1
COc1ccc2c(c1)sc(-c1ccc(B3OCC(C)(C)CO3)cc1)[n+]2C.F[B-](F)(F)F [mBE02, 2-(4-(5,5-Dimethyl-1,3,2-dioxaborinan-2-yl)phenyl)-6-methoxy-3-methylbenzo[d]thiazol-3-ium tetrafluoroborate]	12%	70%	100%	100%	88%	no additional change in fluorescence	3.6 fold	0.015 min⁻¹	0.0060 ± 0.0005 aggregates/µm^2	0.006 ± 0.001 aggregates/µm^2	87 nm	148 M⁻¹ cm⁻¹	330 nm	417 nm	14 800 M^−1 cm^−1	0.01	Oxidized, de-methylated Rel. Area [2, 9]: 18.63%; increase in fluorescence intensity upon addition of αSyn aggregates (αSyn aggregates [4]): 3.8 fold; Kd (αSyn aggregates [5]): 33.5 ± 3.9 µM
COc1ccc2c(c1)sc(-c1ccc(B3OC(C)(C)C(C)(C)O3)cc1)[n+]2C.F[B-](F)(F)F [mBE01, 6-Methoxy-3-methyl-2-(4-(4,4,5,5-tetramethyl-1,3,2-dioxaborolan-2-yl)phenyl)benzo[d]thiazol-3-ium tetrafluoroborate]	27%	64%	100%	100%	73%	no additional change in fluorescence	16.0 fold	0.011 min⁻¹	0.0051 ± 0.0004 aggregates/µm^2	0.0040 ± 0.0004 aggregates/µm^2	87 nm	168 M⁻¹ cm⁻¹	330 nm	417 nm	16 800 M^−1 cm^−1	0.01	Oxidized, de-methylated Rel. Area [2, 9]: 9.47%; increase in fluorescence intensity upon addition of αSyn aggregates (αSyn aggregates [4]): 7.1 fold; Kd (αSyn aggregates [5]): 35.2 ± 5.7 µM
Cc1ccc2c(c1)sc(-c1ccc(N(C)C)cc1)[n+]2C [ThT, thioflavin t, reference compound]	–	–	–	–	–	no change in fluorescence	no change	–	0.026 ± 002 aggregates/µm^2	0.025 ± 0.004 aggregates/µm^2	–	15 M⁻¹ cm⁻¹	412 nm	486 nm	37 500 M^−1 cm^−1	0.00	limit of detection (LOD) to αSyn aggregates (αSyn aggregates [8]): 2.40 ± 0.64 µM
COc1ccc2nc(-c3ccc(B4OCC(C)(C)CO4)cc3)sc2c1 [BE02, 2-(4-(5,5-dimethyl-1,3,2-dioxaborinan-2-yl)phenyl)-6-methoxybenzo[d]thiazole]	10%	90%	100%	100%	90%	–	–	0.017 min⁻¹	–	–	82 nm	168 M⁻¹ cm⁻¹	330 nm	412 nm	4200 M⁻¹ cm⁻¹	0.04	–
COc1ccc2nc(-c3ccc(B4OC(C)(C)C(C)(C)O4)cc3)sc2c1 [BE01, 6-methoxy-2-(4-(4,4,5,5-tetramethyl-1,3,2-dioxaborolan-2-yl)phenyl)benzo[d]thiazole]	–	100%	65%	47%	100%	–	2.0 fold	0.112 ± 0.002 min⁻¹	–	–	86 nm	384 M⁻¹ cm⁻¹	330 nm	416 nm	6400 M⁻¹ cm⁻¹	0.06	Boronate ester Rel. Area [2, 10]: 35%; Boronate ester Rel. Area [2, 11]: 53%; H2O2 concentration detected ([3]; 5 µM dye, 5 h incubation with 0-100 µM H2O2): greater than 1 µM
